± gives the expanded uncertainty stated by the source.
Experiment: mean ionic activity coefficient (dimensionless); mn = molality of the nth substance listed, in mol/kg
Details: 298.15 K, 101 kPa, Liquid, EMF measurements

[Cl-].[Na+] [sodium chloride] + CNC=O
Details	mean ionic activity coefficient
m1 = 0.0396	0.986 ± 0.01
m1 = 0.052	0.985 ± 0.01
m1 = 0.0642	0.983 ± 0.01
m1 = 0.102	0.984 ± 0.01
m1 = 0.1375	0.984 ± 0.01
m1 = 0.1655	0.978 ± 0.01
m1 = 0.1934	0.971 ± 0.01

[Cl-].[Na+] [sodium chloride] + O
Details	mean ionic activity coefficient
m1 = 0.0496	0.819 ± 0.01
m1 = 0.1857	0.733 ± 0.01
m1 = 0.1979	0.733 ± 0.01
m1 = 0.3096	0.707 ± 0.01
m1 = 0.3711	0.689 ± 0.01
m1 = 0.4571	0.686 ± 0.01
m1 = 0.5916	0.675 ± 0.01
m1 = 0.6871	0.659 ± 0.01
m1 = 0.8318	0.663 ± 0.01
m1 = 1.139	0.651 ± 0.01
m1 = 1.212	0.659 ± 0.01
m1 = 1.77	0.657 ± 0.01
m1 = 1.87	0.67 ± 0.01
m1 = 2.394	0.68 ± 0.01
m1 = 2.624	0.702 ± 0.01
m1 = 3.587	0.75 ± 0.01
m1 = 3.811	0.78 ± 0.01
m1 = 4.654	0.83 ± 0.01
m1 = 5.142	0.891 ± 0.01
m1 = 5.443	0.921 ± 0.01
m1 = 5.693	0.929 ± 0.01
m1 = 5.891	0.97 ± 0.01
m1 = 6.032	0.985 ± 0.01
m1 = 6.085	0.976 ± 0.01
m1 = 6.1	0.997 ± 0.01

— the NIST ThermoML archive (doi:10.1016/j.fluid.2011.08.018)
